# Reference: patent publication US20050197350A1, “Novel quinoline, tetrahydroquinazoline, and pyrimidine derivatives and methods of treatment related to the use thereof” (TAISHO PHARMACEUTICAL CO., LTD., priority 2003, published 2005)
# Tested on: MCH receptors
# Assay: MCH receptor activity class (method not given)
# Conditions: class 1-3 by percent of control at 10^-7 M or IC50
row,SMILES,class
1,"CN(C)c1nc(N[C@H]2CC[C@@H](NC(=O)c3cncc(Br)c3)CC2)nc2c1CCCC2 [compound 524, 5-bromo-N-(cis-4-{[4-(dimethylamino)-5,6,7,8-tetrahydroquinazolin-2-yl]amino}cyclohexyl)nicotinamide]",1 (Class 1: The value of percent of control at 10^−7 M was less than 40% or the value of IC50 was less than 50 nM.)
2,CN(C)c1nc(N[C@H]2CC[C@@H](NC(=O)Cc3cccc4ccccc34)CC2)nc2c1CCCC2 [compound 525],3 (Class 3 The value of percent of control at 10^−7 M was more than 60% or the value of IC50 was more than 200 nM.)
3,Cc1cc(C(=O)N[C@H]2CC[C@@H](Nc3nc4c(c(N(C)C)n3)CCCC4)CC2)nn1C(C)(C)C [compound 526],3 (Class 3 The value of percent of control at 10^−7 M was more than 60% or the value of IC50 was more than 200 nM.)
4,CN(C)c1nc(N[C@H]2CC[C@@H](NC(=O)c3csc4ccccc34)CC2)nc2c1CCCC2 [compound 527],3 (Class 3 The value of percent of control at 10^−7 M was more than 60% or the value of IC50 was more than 200 nM.)
5,"CN(C)c1nc(N[C@H]2CC[C@@H](NC(=O)c3ccccc3)CC2)nc2c1CCCC2 [compound 529, N-(cis-4-{[4-(dimethylamino)-5,6,7,8-tetrahydroquinazolin-2-yl]amino}cyclohexyl)benzamide]",2 (Class 2: The value of percent of control at 10^−7 M was from 40% to 60% or the value of IC′50 was from 50 nM to 200 nM.)
6,CN(C)c1nc(N[C@H]2CC[C@@H](NC(=O)c3cc4ccccc4s3)CC2)nc2c1CCCC2 [compound 530],3 (Class 3 The value of percent of control at 10^−7 M was more than 60% or the value of IC50 was more than 200 nM.)
7,"CN(C)c1nc(N[C@H]2CC[C@@H](NC(=O)COCc3ccccc3)CC2)nc2c1CCCC2 [compound 531, 2-(benzyloxy)-N-(cis-4-{[4-(dimethylamino)-5,6,7,8-tetrahydroquinazolin-2-yl]amino}cyclohexyl)acetamide]",2 (Class 2: The value of percent of control at 10^−7 M was from 40% to 60% or the value of IC′50 was from 50 nM to 200 nM.)
8,CN(C)c1nc(N[C@H]2CC[C@@H](NC(=O)COc3ccc(Cl)cc3)CC2)nc2c1CCCC2 [compound 532],2 (Class 2: The value of percent of control at 10^−7 M was from 40% to 60% or the value of IC′50 was from 50 nM to 200 nM.)
9,CN(C)c1nc(N[C@H]2CC[C@@H](NC(=O)C3CCCCC3)CC2)nc2c1CCCC2 [compound 533],3 (Class 3 The value of percent of control at 10^−7 M was more than 60% or the value of IC50 was more than 200 nM.)
10,Cc1onc(-c2ccccc2Cl)c1C(=O)N[C@H]1CC[C@@H](Nc2nc3c(c(N(C)C)n2)CCCC3)CC1 [compound 534],2 (Class 2: The value of percent of control at 10^−7 M was from 40% to 60% or the value of IC′50 was from 50 nM to 200 nM.)
11,CN(C)c1nc(N[C@H]2CC[C@@H](NC(=O)C3(c4ccc(Cl)cc4)CCCC3)CC2)nc2c1CCCC2 [compound 535],2 (Class 2: The value of percent of control at 10^−7 M was from 40% to 60% or the value of IC′50 was from 50 nM to 200 nM.)
12,"Cc1onc(-c2c(F)cccc2Cl)c1C(=O)N[C@H]1CC[C@@H](Nc2nc3c(c(N(C)C)n2)CCCC3)CC1 [compound 536, 3-(2-chloro-6-fluorophenyl)-N-(cis-4-{[4-(dimethylamino)-5,6,7,8-tetrahydroquinazolin-2-yl]amino}cyclohexyl)-5-methylisoxazole-4-carboxamide]",1 (Class 1: The value of percent of control at 10^−7 M was less than 40% or the value of IC50 was less than 50 nM.)
13,CC(C)S(=O)(=O)c1csc(C(=O)N[C@H]2CC[C@@H](Nc3nc4c(c(N(C)C)n3)CCCC4)CC2)c1Cl [compound 537],3 (Class 3 The value of percent of control at 10^−7 M was more than 60% or the value of IC50 was more than 200 nM.)
14,CN(C)c1nc(N[C@H]2CC[C@@H](NC(=O)c3ccc([N+](=O)[O-])cc3Cl)CC2)nc2c1CCCC2 [compound 538],3 (Class 3 The value of percent of control at 10^−7 M was more than 60% or the value of IC50 was more than 200 nM.)
15,Cc1cc(C(=O)N[C@H]2CC[C@@H](Nc3nc4c(c(N(C)C)n3)CCCC4)CC2)n(C)n1 [compound 539],2 (Class 2: The value of percent of control at 10^−7 M was from 40% to 60% or the value of IC′50 was from 50 nM to 200 nM.)
16,COc1ccc(C(=O)N[C@H]2CC[C@@H](Nc3nc4c(c(N(C)C)n3)CCCC4)CC2)cc1OC [compound 540],3 (Class 3 The value of percent of control at 10^−7 M was more than 60% or the value of IC50 was more than 200 nM.)
17,CN(C)c1nc(N[C@H]2CC[C@@H](NC(=O)c3cccc(F)c3)CC2)nc2c1CCCC2 [compound 541],1 (Class 1: The value of percent of control at 10^−7 M was less than 40% or the value of IC50 was less than 50 nM.)
18,CN(C)c1nc(N[C@H]2CC[C@@H](NC(=O)c3ccc(F)c(C(F)(F)F)c3)CC2)nc2c1CCCC2 [compound 542],1 (Class 1: The value of percent of control at 10^−7 M was less than 40% or the value of IC50 was less than 50 nM.)
19,Cc1nn(-c2ccccc2)nc1C(=O)N[C@H]1CC[C@@H](Nc2nc3c(c(N(C)C)n2)CCCC3)CC1 [compound 543],2 (Class 2: The value of percent of control at 10^−7 M was from 40% to 60% or the value of IC′50 was from 50 nM to 200 nM.)
20,COc1ccc(Oc2ccc([N+](=O)[O-])cc2C(=O)N[C@H]2CC[C@@H](Nc3nc4c(c(N(C)C)n3)CCCC4)CC2)cc1 [compound 544],1 (Class 1: The value of percent of control at 10^−7 M was less than 40% or the value of IC50 was less than 50 nM.)

row,SMILES,class
1,CN(C)c1nc(N[C@H]2CC[C@@H](NC(=O)c3cccc4ccccc34)CC2)nc2c1CCCC2 [compound 545],3 (Class 3 The value of percent of control at 10^−7 M was more than 60% or the value of IC50 was more than 200 nM.)
2,CN(C)c1nc(N[C@H]2CC[C@@H](NC(=O)c3ccc4ccccc4c3)CC2)nc2c1CCCC2 [compound 546],3 (Class 3 The value of percent of control at 10^−7 M was more than 60% or the value of IC50 was more than 200 nM.)
3,CN(C)c1nc(N[C@H]2CC[C@@H](NC(=O)c3ccc([N+](=O)[O-])o3)CC2)nc2c1CCCC2 [compound 547],1 (Class 1: The value of percent of control at 10^−7 M was less than 40% or the value of IC50 was less than 50 nM.)
4,CN(C)c1nc(N[C@H]2CC[C@@H](NC(=O)COc3ccccc3)CC2)nc2c1CCCC2 [compound 548],1 (Class 1: The value of percent of control at 10^−7 M was less than 40% or the value of IC50 was less than 50 nM.)
5,CN(C)c1nc(N[C@H]2CC[C@@H](NC(=O)COc3ccccc3[N+](=O)[O-])CC2)nc2c1CCCC2 [compound 549],3 (Class 3 The value of percent of control at 10^−7 M was more than 60% or the value of IC50 was more than 200 nM.)
6,CN(C)c1nc(N[C@H]2CC[C@@H](NC(=O)c3cnc4ccccc4n3)CC2)nc2c1CCCC2 [compound 550],1 (Class 1: The value of percent of control at 10^−7 M was less than 40% or the value of IC50 was less than 50 nM.)
7,COc1cc(C(=O)N[C@H]2CC[C@@H](Nc3nc4c(c(N(C)C)n3)CCCC4)CC2)cc(OC)c1OC [compound 551],3 (Class 3 The value of percent of control at 10^−7 M was more than 60% or the value of IC50 was more than 200 nM.)
8,CN(C)c1nc(N[C@H]2CC[C@@H](NC(=O)c3cccc(C(F)(F)F)c3)CC2)nc2c1CCCC2 [compound 552],1 (Class 1: The value of percent of control at 10^−7 M was less than 40% or the value of IC50 was less than 50 nM.)
9,CN(C)c1nc(N[C@H]2CC[C@@H](NC(=O)c3ccc(C(F)(F)F)cc3)CC2)nc2c1CCCC2 [compound 553],3 (Class 3 The value of percent of control at 10^−7 M was more than 60% or the value of IC50 was more than 200 nM.)
10,CN(C)c1nc(N[C@H]2CC[C@@H](NC(=O)c3ccccc3OC(F)(F)F)CC2)nc2c1CCCC2 [compound 554],3 (Class 3 The value of percent of control at 10^−7 M was more than 60% or the value of IC50 was more than 200 nM.)
11,COc1cc(COC(=O)N[C@H]2CC[C@@H](Nc3nc4c(c(N(C)C)n3)CCCC4)CC2)c([N+](=O)[O-])cc1OC [compound 555],3 (Class 3 The value of percent of control at 10^−7 M was more than 60% or the value of IC50 was more than 200 nM.)
12,CN(C)c1nc(N[C@H]2CC[C@@H](NC(=O)CCCOc3ccccc3)CC2)nc2c1CCCC2 [compound 556],3 (Class 3 The value of percent of control at 10^−7 M was more than 60% or the value of IC50 was more than 200 nM.)
13,COc1ccc(Br)c(C(=O)N[C@H]2CC[C@@H](Nc3nc4c(c(N(C)C)n3)CCCC4)CC2)c1 [compound 557],3 (Class 3 The value of percent of control at 10^−7 M was more than 60% or the value of IC50 was more than 200 nM.)
14,CN(C)c1nc(N[C@H]2CC[C@@H](NC(=O)COc3c(F)c(F)c(F)c(F)c3F)CC2)nc2c1CCCC2 [compound 558],3 (Class 3 The value of percent of control at 10^−7 M was more than 60% or the value of IC50 was more than 200 nM.)
15,COc1ccc(CC(=O)N[C@H]2CC[C@@H](Nc3nc4c(c(N(C)C)n3)CCCC4)CC2)cc1OC [compound 559],3 (Class 3 The value of percent of control at 10^−7 M was more than 60% or the value of IC50 was more than 200 nM.)
16,CN(C)c1nc(N[C@H]2CC[C@@H](NC(=O)c3ccc(F)c(F)c3F)CC2)nc2c1CCCC2 [compound 560],3 (Class 3 The value of percent of control at 10^−7 M was more than 60% or the value of IC50 was more than 200 nM.)
17,CN(C)c1nc(N[C@H]2CC[C@@H](NC(=O)C3CCCC3)CC2)nc2c1CCCC2 [compound 561],3 (Class 3 The value of percent of control at 10^−7 M was more than 60% or the value of IC50 was more than 200 nM.)
18,CN(C)c1nc(N[C@H]2CC[C@@H](NC(=O)c3ccc(F)cc3F)CC2)nc2c1CCCC2 [compound 562],3 (Class 3 The value of percent of control at 10^−7 M was more than 60% or the value of IC50 was more than 200 nM.)
19,CN(C)c1nc(N[C@H]2CC[C@@H](NC(=O)CCc3ccccc3)CC2)nc2c1CCCC2 [compound 563],3 (Class 3 The value of percent of control at 10^−7 M was more than 60% or the value of IC50 was more than 200 nM.)
20,CN(C)c1nc(N[C@H]2CC[C@@H](NC(=O)c3cc(F)c(F)c(F)c3F)CC2)nc2c1CCCC2 [compound 564],3 (Class 3 The value of percent of control at 10^−7 M was more than 60% or the value of IC50 was more than 200 nM.)
